In patent US11311520B2, “Substituted dihydroimidazopyridinediones as MKNK1 and MKNK2 inhibitors” (Bayer Pharma Aktiengesellschaft, priority 2017, dated 2022):
Structures can show the parent of a compound that is named as a salt.

Target: human full-length MKNK1 (Homo sapiens (Human), UniProt Q9BUB5, T344D)
Experiment: MKNK1 kinase high ATP assay (TR-FRET)
Format: biochemical
Conditions: 2 mM ATP, 15 min preincubation with enzyme, GST-MKNK1 (T344D)
Procedure, shortened: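 GST-tagged full-length human MKNK1 (1-424, T344D, baculovirus-expressed) preincubated 15 min at 22 °C with compound, then reacted 30 min at 22 °C with 2 mM ATP and 0.06 μM biotinylated peptide (final) in HEPES pH 7.5. Phospho-substrate by TR-FRET (665/622 nm ratio), normalised to no-inhibitor and no-enzyme controls.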

Chain of human full-length MKNK1 (Q9BUB5 other isoform, or with tags, fused parts or gaps T344D): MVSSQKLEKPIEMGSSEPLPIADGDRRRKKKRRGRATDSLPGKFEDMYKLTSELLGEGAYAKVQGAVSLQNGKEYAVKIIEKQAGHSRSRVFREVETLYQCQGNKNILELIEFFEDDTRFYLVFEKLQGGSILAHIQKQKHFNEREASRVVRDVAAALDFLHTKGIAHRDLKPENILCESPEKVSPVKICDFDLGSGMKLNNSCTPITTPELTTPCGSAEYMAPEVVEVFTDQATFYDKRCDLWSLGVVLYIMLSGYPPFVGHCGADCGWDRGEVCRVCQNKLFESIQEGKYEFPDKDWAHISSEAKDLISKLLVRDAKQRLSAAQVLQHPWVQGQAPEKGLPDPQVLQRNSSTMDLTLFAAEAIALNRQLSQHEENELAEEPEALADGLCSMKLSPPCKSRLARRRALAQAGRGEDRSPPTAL

`Cc1cc(Nc2ncnc3c2CN(S(=O)(=O)C(F)(F)F)C3)c(=O)n2c1C(=O)NC21CCCCC1` [Example 72, 8′-methyl-6′-({6-[(trifluoromethyl)sulfonyl]-6,7-dihydro-5H-pyrrolo[3,4-d]pyrimidin-4-yl}amino)-2′H-spiro[cyclohexane-1,3′-imidazo[1,5-a]pyridine]-1′,5′-dione] showed an IC50 of 30.4 nM.

Compound `Cc1cc(Nc2ncnc3c2CN(S(=O)(=O)CC(F)(F)F)C3)c(=O)n2c1C(=O)NC21CCCCC1` [Example 73, 8′-methyl-6′-({6-[(2,2,2-trifluoroethyl)sulfonyl]-6,7-dihydro-5H-pyrrolo[3,4-d]pyrimidin-4-yl}amino)-2′H-spiro[cyclohexane-1,3′-imidazo[1,5-a]pyridine]-1′,5′-dione] has an IC50 of 168 nM.

`Cc1cc(Nc2ncnc3sc(C(=O)N4CC(N)C4)cc23)c(=O)n2c1C(=O)NC21CCCC1` [Example 74, 6′-({6-[(3-Aminoazetidin-1-yl)carbonyl]thieno[2,3-d]pyrimidin-4-yl}amino)-8′-methyl-2′H-spiro[cyclopentane-1,3′-imidazo[1,5-a]pyridine]-1′,5′-dione] was tested, and the IC50 was 1.5 nM.

`CCNC(=O)N1Cc2ncnc(Nc3cc(C)c4n(c3=O)C3(CCCCC3)NC4=O)c2C1` [Example 75, N-Ethyl-4-[(8′-methyl-1′,5′-dioxo-1′,5′-dihydro-2′H-spiro[cyclohexane-1,3′-imidazo[1,5-a]pyridin]-6′-yl)amino]-5,7-dihydro-6H-pyrrolo[3,4-d]pyrimidine-6-carboxamide] gave an IC50 of 11.9 nM.

With `CCOC(=O)N1Cc2ncnc(Nc3cc(C)c4n(c3=O)C3(CCCCC3)NC4=O)c2C1` [Example 76, Ethyl 4-[(8′-methyl-1′,5′-dioxo-1′,5′-dihydro-2′H-spiro[cyclohexane-1,3′-imidazo[1,5-a]pyridin]-6′-yl)amino]-5,7-dihydro-6H-pyrrolo[3,4-d]pyrimidine-6-carboxylate] the IC50 was 17.7 nM.

With `Cc1cc(Nc2ncnc3c2CN(C(=O)[C@@H]2CCC(=O)N2)C3)c(=O)n2c1C(=O)NC21CCCCC1` [Example 77, 8′-Methyl-6′-[(6-{[(2S)-5-oxopyrrolidin-2-yl]carbonyl}-6,7-dihydro-5H-pyrrolo[3,4-cl]pyrimidin-4-yl)amino]-2′H-spiro[cyclohexane-1,3′-imidazo[1,5-a]pyridine]-1′,5′-dione] the IC50 was 55.9 nM.

`CC(=O)N1Cc2ncnc(Nc3cc(C)c4n(c3=O)C3(CCCCC3)NC4=O)c2C1` [Example 78, 6′-[(6-Acetyl-6,7-dihydro-5H-pyrrolo[3,4-d]pyrimidin-4-yl)amino]-8′-methyl-2′H-spiro[cyclohexane-1,3′-imidazo[1,5-a]pyridine]-1′,5′-dione] was tested, and the IC50 was 37.9 nM.

In the case of `Cc1cc(Nc2ncnc3c2CN(S(=O)(=O)c2ccccn2)C3)c(=O)n2c1C(=O)NC21CCCCC1` [Example 79, 8′-Methyl-6′-{[6-(pyridin-2-ylsulfonyl)-6,7-dihydro-5H-pyrrolo[3,4-d]pyrimidin-4-yl]amino}-2′H-spiro[cyclohexane-1,3′-imidazo[1,5-a]pyridine]-1′,5′-dione], the IC50 is reported as 122 nM.

`Cc1cc(Nc2ncnc3sc(C(=O)O)cc23)c(=O)n2c1C(=O)NC21CCC(F)(F)CC1` [Example 80, 4-[(4,4-Difluoro-8′-methyl-1′,5′-dioxo-1′,5′-dihydro-2′H-spiro[cyclohexane-1,3′-imidazo[1,5-a]pyridin]-6′-yl)amino]thieno[2,3-d]pyrimidine-6-carboxylic acid] was tested, and the IC50 was 126 nM.

For `Cc1cc(Nc2ncnc3sc(C(=O)NCCN(C)C)cc23)c(=O)n2c1C(=O)NC21CCC(F)(F)CC1` [Example 81, 4-[(4,4-Difluoro-8′-methyl-1′,5′-dioxo-1′,5′-dihydro-2′H-spiro[cyclohexane-1,3′-imidazo[1,5-a]pyridin]-6′-yl)amino]-N-[2-(dimethylamino)ethyl]thieno[2,3-d]pyrimidine-6-carboxamide], the IC50 was 5 nM.

In the case of `Cc1cc(Nc2ncnc3sc(C(=O)N(C)CCN(C)C)cc23)c(=O)n2c1C(=O)NC21CCC(F)(F)CC1` [Example 82, 4-[(4,4-Difluoro-8′-methyl-1′,5′-dioxo-1′,5′-dihydro-2′H-spiro[cyclohexane-1,3′-imidazo[1,5-a]pyridin]-6′-yl)amino]-N-[2-(dimethylamino)ethyl]-N-methylthieno[2,3-d]pyrimidine-6-carboxamide], the IC50 is reported as 18.3 nM.

`Cc1cc(Nc2ncnc3sc(C(=O)N4CC(NC(=O)OC(C)(C)C)C4)cc23)c(=O)n2c1C(=O)NC21CCC(F)(F)CC1` [Example 83, tert-Butyl [1-({4-[(4,4-difluoro-8′-methyl-1′,5′-dioxo-1′,5′-dihydro-2′H-spiro[cyclohexane-1,3′-imidazo[1,5-a]pyridin]-6′-yl)amino]thieno[2,3-d]pyrimidin-6-yl}carbonyl)azetidin-3-yl]carbamate] was tested, and the IC50 was 12.2 nM.

With `Cc1cc(Nc2ncnc3sc(C(=O)N4CC(N)C4)cc23)c(=O)n2c1C(=O)NC21CCC(F)(F)CC1` [Example 84, 6′-({6-[(3-Aminoazetidin-1-yl)carbonyl]thieno[2,3-d]pyrimidin-4-yl}amino)-4,4-difluoro-8′-methyl-2′H-spiro[cyclohexane-1,3′-imidazo[1,5-a]pyridine]-1′,5′-dione] the IC50 was 10.8 nM.

With `Cc1cc(Nc2ncnc3sc(C(=O)N4CC(C#N)C4)cc23)c(=O)n2c1C(=O)NC21CCC(F)(F)CC1` [Example 85, 1-({4-[(4,4-Difluoro-8′-methyl-1′,5′-dioxo-1′,5′-dihydro-2′H-spiro[cyclohexane-1,3′-imidazo[1,5-a]pyridin]-6′-yl)amino]thieno[2,3-d]pyrimidin-6-yl}carbonyl)azetidine-3-carbonitrile] the IC50 was 25.2 nM.

In the case of `Cc1cc(Nc2ncnc3sc(C(=O)N4CC[C@@H](N(C)C)C4)cc23)c(=O)n2c1C(=O)NC21CCC(F)(F)CC1` [Example 86, 6′-[(6-{[(3R)-3-(Dimethylamino)pyrrolidin-1-yl]carbonyl}thieno[2,3-d]pyrimidin-4-yl)amino]-4,4-difluoro-8′-methyl-2′H-spiro[cyclohexane-1,3′-imidazo[1,5-a]pyridine]-1′,5′-dione], the IC50 is reported as 11.9 nM.

`Cc1cc(Nc2ncnc3sc(C(=O)N4CCC(N(C)C)CC4)cc23)c(=O)n2c1C(=O)NC21CCC(F)(F)CC1` [Example 87, 6′-[(6-{[4-(Dimethylamino)piperidin-1-yl]carbonyl}thieno[2,3-d]pyrimidin-4-yl)amino]-4,4-difluoro-8′-methyl-2′H-spiro[cyclohexane-1,3′-imidazo[1,5-a]pyridine]-1′,5′-dione] gave an IC50 of 23.1 nM.

`Cc1cc(Nc2ncnc3sc(C(=O)N4C[C@H]5C[C@@H]4CO5)cc23)c(=O)n2c1C(=O)NC21CCC(F)(F)CC1` [Example 88, 4,4-Difluoro-8′-methyl-6′-({6-[(1R,4R)-2-oxa-5-azabicyclo[2.2.1]hept-5-ylcarbonyl]thieno[2,3-d]pyrimidin-4-yl}amino)-2′H-spiro[cyclohexane-1,3′-imidazo[1,5-a]pyridine]-1′,5′-dione] gave an IC50 of 13.5 nM.

For `Cc1cc(Nc2ncnc3sccc23)c(=O)n2c1C(=O)NC21CCC(F)(F)CC1` [Example 89, 4,4-Difluoro-8′-methyl-6′-(thieno[2,3-d]pyrimidin-4-ylamino)-2′H-spiro[cyclohexane-1,3′-imidazo[1,5-a]pyridine]-1′,5′-dione], the IC50 was 12.8 nM.

For `Cc1cc(Nc2ncnc3[nH]ccc23)c(=O)n2c1C(=O)NC21CCC(F)(F)CC1` [Example 90, 4,4-Difluoro-8′-methyl-6′-(7H-pyrrolo[2,3-d]pyrimidin-4-ylamino)-2′H-spiro[cyclohexane-1,3′-imidazo[1,5-a]pyridine]-1′,5′-dione], the IC50 was 0.7 nM.

For `Cc1cc(Nc2ncnc3[nH]ccc23)c(=O)n2c1C(=O)NC21CCC(F)(F)CC1` [Example 91, 4,4-Difluoro-8′-methyl-6′-(7H-pyrrolo[2,3-d]pyrimidin-4-ylamino)-2′H-spiro[cyclohexane-1,3′-imidazo[1,5-a]pyridine]-1′,5′-dione methanesulfonate], the IC50 (methanesulfonate) was 1.1 nM.

`Cc1cc(Nc2ncnc3[nH]ccc23)c(=O)n2c1C(=O)NC21CCC(F)(F)CC1` [Example 92, 4,4-Difluoro-8′-methyl-6′-(7H-pyrrolo[2,3-d]pyrimidin-4-ylamino)-2′H-spiro[cyclohexane-1,3′-imidazo[1,5-a]pyridine]-1′,5′-dione hydrochloride] gave an IC50 (hydrochloride) of 1.2 nM.

Compound `Cc1cc(Nc2ncnc3sc(C(=O)O)c(C)c23)c(=O)n2c1C(=O)NC21CCC(F)(F)CC1` [Example 93, 4-[(4,4-Difluoro-8′-methyl-1′,5′-dioxo-1′,5′-dihydro-2′H-spiro[cyclohexane-1,3′-imidazo[1,5-a]pyridin]-6′-yl)amino]-5-methylthieno[2,3-d]pyrimidine-6-carboxylic acid] has an IC50 of 42 nM.

For `Cc1cc(Nc2ncnc(N)n2)c(=O)n2c1C(=O)NC21CCC(F)(F)CC1` [Example 94, 6′-[(4-Amino-1,3,5-triazin-2-yl)amino]-4,4-difluoro-8′-methyl-2′H-spiro[cyclohexane-1,3′-imidazo[1,5-a]pyridine]-1′,5′-dione], the IC50 was 27.8 nM.

Work on `Cc1cc(Nc2ncnc3sc(C(=O)O)c(C)c23)c(=O)n2c1C(=O)NC21CCCC1` [Example 95, 5-Methyl-4-[(8′-methyl-1′,5′-dioxo-1′,5′-dihydro-2′H-spiro[cyclopentane-1,3′-imidazo[1,5-a]pyridin]-6′-yl)amino]thieno[2,3-d]pyrimidine-6-carboxylic acid] yielded an IC50 of 5.8 nM.

Compound `Cc1cc(Nc2ncnc3sc(C(=O)N4C[C@H]5C[C@@H]4CO5)cc23)c(=O)n2c1C(=O)NC21CCCC1` [Example 96, 8′-Methyl-6′-({6-[(1R,4R)-2-oxa-5-azabicyclo[2.2.1]hept-5-ylcarbonyl]thieno[2,3-d]pyrimidin-4-yl}amino)-2′H-spiro[cyclopentane-1,3′-imidazo[1,5-a]pyridine]-1′,5′-dione] has an IC50 of 3.9 nM.
